Consider 5 compounds from US6399622B1, “Method for diagnosing and alleviating the symptoms of chronic fatigue syndrome” (priority 1997, dated 2002).

Where two headings read alike, the source gives them in different places.

The subject of one data set is herpes viruses. The note with it: cited from earlier work.
The test system of a further data set is HCMV. It is filed as in vivo, human. The following applies: for mean energy index: six months later. The procedure:
HCMV-Isolated CFS Patients-Test of Antiviral Treatment. A study was conducted to assess the possible efficacy of ganciclovir treatment on a subset of CFS patients with (1) high HCMV IgG ELISA antibody titers; (2) minimal/no serologic evidence of concurrent EBV multiplication; and (3) oscillating ECG abnormalities at Holter monitoring. Patients. From March, 1993, through June, 1994, 3 men and 15 women with the mean age of 39.7 plus or minus 7.7 years, with CFS (as defined by the USA, Centers for Diseases Control criteria), were recruited from a single infectious diseases referral center in Birmingham, Mich. Approximately 50 patients with chronic fatigue syndrome were screened for inclusion in this study. […] In these 18 CFS patients, baseline standard 12 lead ECG, 2-D echocardiogram, rest-stress myocardial perfusion (thallium 201 or Tc-99 cardiolite) and rest-stress multiple […] acquisitions (MUGA) studies as well as coronary angiography excluded coronary artery disease. HCMV ELISA and HCMV ELISA IgG titers, as well as EBV capsid antigen (VCA), ELISA IgM and EBV total early antigens (EA) immunofluorescent antibody titers were assayed. Additionally, buffy coats, urine and myocardial biopsies were tested for infectious HCMV. […] Holter monitoring, MUGA studies and endomyocardial biopsies in these patients were done. Holter monitors, MUGA studies and endomyocardial biopsies were read blindly without knowledge of the patient. Also readings were repeated by at least one, and often several, other physician readers. A patient's 24-hour Holter monitor was considered positive if T-waves became intermittently inverted or flat. Labile T-wave abnormalities at Holter monitoring were present in each CFS patient. In addition to the Holter monitoring, at each outpatient visit, a subjective evaluation of the patient's functional status was recorded using the energy index (EI) as previously described. Infusions of Ganciclovir. After placement of a peripherally inserted central catheter (PICC) or a groshong catheter, ganciclovir was given intravenously in a dose of 5 mg. per kg. at 12-hour intervals for 30 days. Patients were seen once a week by the same physician and complete blood counts, SMA values and urinalysis were conducted. […] They were advised to avoid exercise, fatigue and alcohol and engage in regular sleeping patterns. Statistical Methods. Eighteen patients, 3 men and 15 women, all with CFS, with a mean age of 39.7 ranging from 29 to 51 years, were evaluated. Statistical significance between patients meeting the criteria for the HCMV subset and other patients with CFS were evaluated using tests of homogeneity of chi-square analysis and the two-tailed Fisher's exact test for bivariate analysis of dichotomous data.

For data set [1] the following is noted: in vivo, po, 1000 mg; cited from earlier work.
Data set [2] concerns human cytomegalovirus (nonstructural gene products p52 and CM2). Put plainly: Example 4: Copalis antibody titers and fatigue after ganciclovir in HCMV CFS patients. It is filed as in vivo. An excerpt: This Copalis® method to CM2 and p52 measures IgM antibodies to HCMV non-structural gene products. The non-structural gene products are UL44, UL57. These gene products have been produced in E-coli. The UL44 and UL57 refer to the open reading frames (ORF) of the human cytomegalovirus genome. The UL44 has the function of a polymerase processivity factor known as p52. The UL57 is the second gene product which may be measured by the Copalis® method and its function is as a single-stranded (ss) DNA binding protein CM2. These are nonstructural gene products which are extruded from a cell with incomplete human cytomegalovirus multiplication. The Copalis® method measures antibodies to these two gene products with the purified antigens produced in E-coli.
The Copalis® CMV Mutliplex assay is a homogenous test for the simultaneous determination of acute infection stages or immune status to Cytomegalovirus using coupled particle light scattering. Sized microparticles, coated with one of three antigens (p52, CM2, and CMV viral particle (VP)) are dried in the reaction cup. Early phase IgM antibodies are detected by both the CM2 and the p52 antigens. Antibody response to the CM2 antigen but not to the p52 antigen continues through the convalescent stage of acute infection. Antibodies to the VP may appear during acute infection but shall persist during life. Reactivity just (sucrose-density purified tissue culture produced complete HCMV cytomegalovirus) to the VP is characteristic of prior infection (indicative of immune status). Antibody detection, made by the Copalis® Immunoassay System, is reported qualitatively for the IgM analytes and semi-quantitatively for the total analyte.
The Copalis® CMVplex Antibody Assay is based on the principle of antibody dependent particle aggregation as measured by the amount of light scattered. A typical antibody reactivity pattern (IgM and/or IgG) in the patient sample allows diagnosis of the infection as seronegative, acute or past infections. The CMVplex Test Cup has polystyrene microparticles of three sizes each coated with different specific antigens dried in the bottom. The Test Cup is reconstituted with reaction buffer by the instrument. The sample is then transferred into the reaction well and the mixture is agitated for 10 minutes. Upon completion of the agitation, the reaction mixture is transferred to the optical system for analysis.
The level of aggregation is determined by discrimination of particle sizes and unreacted particles (monomers) as detected by the optical system. The quantity of assay particles remaining as monomers is compared to that of an unreacted baseline negative calibrator. A ratio is established between the counts of the two monomer particles. This ratio is reported as the Copalis® Test Result (CTR). The CTR is then converted into a numerical unit, Copalis® Index (CI), which determines the cutoff thresholds for each marker. Interpretation of results is based upon the CI. Results for the IgG marker (VP) are reported semi-quantitatively and qualitatively for the IgM markers (p52 and CM2).
Results of Copalis® antibody testing in patients with the U.S. CDC-Chronic Fatigue Syndrome and various other patients with severe onset of […] fatigue. Group 1) Eight patients were studied with the chronic fatigue syndrome. They are six women and […] with ages ranging from 32 through 48. They had IgG antibodies to human cytomegalovirus. […] They would be evaluated as having past infection. […]

For data set [3], the system named is Epstein-Barr virus persistent infection. Put plainly: Example 2: valacyclovir treatment of EBV-isolated CFS patients. The format is in vivo, human. The text has this: EBV-Isolated CFS Patients—Test of Antiviral Treatment. […] EBV active infection was documented by EBV VCA IgM antibodies and/or EBV EA elevated antibody titers. All of these patients had their energy levels reduced by 50% or more and were partially or entirely non-functional, unable to work or maintain a household. These ten patients had no diseases or complicating conditions which could have accounted for their chronic fatigue syndrome symptoms and they had no prior psychiatric diseases.
Each patient's functional status was recorded as a statistically validated energy index (EI). At each out-patient visit, subjective evaluation of the patient's functional status was recorded using this energy index. The energy index records the average subjective vitality of the patient in the immediate 14 days prior to this specific out-patient visit. When minor illnesses such as the common cold complicated a visit, evaluation of the EI for a patient was delayed until the intercurrent problem receded.
Prior to the initiation of the antiviral treatment and following approximately six months of treatment, objective evaluations of the ability to work and the energy index of each of the ten patients was analyzed.
Pursuant to the energy index, a patient with a 0 energy index (EI) is bedridden. With an energy index of 1 or 2, any activity by the patient leads to overwhelming, incapacitating fatigue. Such patients are generally light-headed, unable to think clearly, and concentration is difficult for any extended period of time (over 60 minutes). Left-sided chest aches, palpitations, sore throats and feverishness are frequent. These patients may be out of bed for intermittent, brief periods of the day.
Patients with an energy index between 3 and 5 can, with great effort, be out of bed for several hours each day doing non-physical activities. […] These patients express variable light-headedness, inability to think clearly or read normally. Left-sided chest aches, palpitations, sore throats and feverishness occur often. Patients within this energy range cannot perform a 40 hour sedentary job or maintain the duties of a homemaker including such activities as cooking and cleaning. In general, CFS patients have an energy index of 5 or less.
Patients with an energy index between 6 and 9 can assume normal activities and maintain a 40 hour work week and, with pacing, maintain a household. […] These patients can do light physical work or exercise in moderation without fatigue.
Patients with an energy index of 10 have normal energy levels, stamina and a sense of well-being. Light-headedness, difficulties in concentrating and reading ability and chest aches, palpitations, sore throats and feverishness are absent.
During the initial and final clinical visits, each CFS patient was studied to determine the IgM antibodies to the EBV viral capsid antigen (VCA), total early antigens (EA), and enzyme immunoassays (ELISA) to HCMV IgM and HCMV ELISA IgG titers. An IgM EBV VCA antibody titer indicates infectious lytic EBV multiplication within the most recent 3 month period. During the EBV infectious lytic cycle, antigen is expressed which can be divided into a diffuse (EAD) complex and a cytoplasmic restricted EAR complex (EAR). As a result, each patient's EAD was assayed. The presence of EBV EA antibody indicates current EBV multiplication. Likewise, an elevated […] IgM antibody indicates recent EBV or HCMV multiplication, respectively. The EBV VCA antibody IgM titers were done by the ELISA method. As a control group, similar serum antibody titers were measured in 20 non-CFS individuals. In the non-CFS control group, the mean HCMV IgG titer was 240.
Dosage. Each of the patients was administered an oral dose of valacyclovir at 10 mg/kg by mouth every six hours.
Demographics. There were nine women and one person. Their ages ranged from 20-67 years. Their mean age was 43.3 years. […]

Where [4] appears, read: eight CFS patients, intravenous followed by oral ganciclovir.

Consider `O=C(O)P(=O)(O)O` [Foscarnet sodium, trisodium phosphonoformate], for which, in the data set on herpes viruses (in vitro and in vivo), the “activity against herpes viruses” value was “potent in vitro and in vivo activity”.

`O=c1[nH]c(=O)n([C@@H]2O[C@H](CO)[C@@H](O)[C@@H]2O)cc1/C=C/Br` [bromovinyl arabinosyl uracil]: the “inhibition of herpes viruses” value in the data set with herpes viruses (herpes simplex virus Type 1, Epstein-Barr virus and VZV) is given as “significant inhibition”.

As to `Nc1nc2c(ncn2COC(CO)CO)c(=O)[nH]1` [ganciclovir, 9-(1,3-dihydroxy-2-propoxymethyl) guanine], the mean energy index with HCMV (Group A (13 improved patients), start mean 3) was found to be 7; in the data set on HCMV (Group B (5 not improved patients), start mean 2) it was 4. Besides, the “patients with improved MUGA test results (lesser tardokinesis, hypokinesis or left ventricular dilatation)” value in the data set with HCMV (Group A, after treatment) came out at 3 patients. Further, the “patients with previously abnormal myocardial dynamics reverted to normal (MUGA)” value in the data set on HCMV (Group A, after treatment) is on record as 3 patients. For the same compound, in the data set on HCMV (Group B), the “patients who resumed normal pre-CFS activity levels” value is reported as “none”. Moreover, the figures for the fatigue entry (with HCMV (case study); in data set [2] (setting [4])) were “disappeared” and “remarkably lessened”, respectively. Further, the “maximal cardiac ejection fraction” value in the data set with HCMV (case study, a further five months later, from 54%) was found to be 68%. In the data set on HCMV (case study, five months after 30 days i.v. treatment, before 40%), the “resting ejection fraction (stress MUGA)” value stood at 54%. In addition, in the data set on HCMV (case study, from 40% to 54%), the “increase of resting ejection fraction” value came out at 14%. Further, the serum creatinine entry in the data set with HCMV (human, in vivo) is on record as “transient increase in serum creatinine”. Besides, the adverse events result in the data set on HCMV (human, in vivo, iv) is “no adverse events or symptoms attributable to ganciclovir”. Moreover, in the data set with HCMV (of 18 CFS patients, 5 mg per kg i.v. at 12-hour intervals for 30 days), the patients improved was 13 patients. For the same compound, the “MUGA study at follow up” value in the data set on HCMV (one Group B patient with initial normal MUGA, 6 months after treatment) is given as “showed septal hypokinesis”. Further, the clinical response result with HCMV (small preliminary subset of CFS patients with HCMV infection, no concurrent EBV multiplication) is listed as “salutary response”. The “activity level after antiviral treatment” value with HCMV (the 13 patients in Group A) was “resumed their normal pre-CFS activity levels”. Further, in data set [1], the “bioavailability (of ganciclovir)” value is listed as 5.6%. Further, the “antibodies to nonstructural gene products p52 and CM2 (Copalis)” value in data set [2] (setting [4]) was “became markedly lower and disappeared”. The clinical outcome in data set [2] (person positive only by p52, intravenous followed by oral ganciclovir) is “improved remarkably”. The cardiac function result in data set [2] (person with congestive heart failure and diabetes mellitus, intravenous) was “improved”. Moreover, the “CM2 antibodies (Copalis)” value in data set [2] (two CFS patients with high CM2, no elevated p52, intravenous followed by oral ganciclovir) is recorded as “lessened or disappeared”.

For `CC(C)[C@H](N)C(=O)OCCOCn1cnc2c(=O)[nH]c(N)nc21` [valacyclovir], the “mean energy index (EI) at completion of therapy” value in data set [3] (10 EBV CFS patients, 10 mg/kg by mouth every six hours, about six months, pre-therapy mean EI 4.7) was determined as 7.5. In data set [3] (10 EBV CFS patients, about six months of treatment), the “median energy index (EI) at completion of therapy” value was 7. Also, the “range of energy index (EI) at completion of therapy” value in data set [3] (10 EBV CFS patients, pre-therapy range 3.5 to 5.5) is 6-10. In addition, the “patients with light-headedness, unsteadiness, inability to think well at completion of the trial” value in data set [3] (at beginning 9 out of 10) was “one of ten”. Further, in data set [3] (at beginning five out of ten), the “patients with palpitations at completion of the trial” value is “three out of ten”. For the same compound, in data set [3] (at beginning seven out of ten), the “patients with positive EA antibody titers (≧10) at completion of the trial” value is recorded as “eight out of ten”. The “patients with EBV VCA IgM positive titers at completion of the trial” value in data set [3] (before trial five out of ten) is reported as “two out of ten”. Also, in data set [3] (each of the ten patients, after approximately six months), the “ability to work / activity level following treatment” value is recorded as “able to fully engage in his/her activity level at work or home”. Moreover, the “patients with chest pain at completion of the trial” value in data set [3] (prior to therapy five out of ten) is given as “one out of ten”.

Turning to `CC(C)[C@H](N)C(=O)OCC(CO)OCn1cnc2c(=O)nc(N)[nH]c21` (stereo partly drawn) [valganciclovir], the “bioavailability (of ganciclovir)” value in data set [1] is recorded as 60.9%.
